The results in this text go back to patent publication US20250346600A1, “TRICYCLIC DERIVATIVES AND RELATED USES” (MOMA Therapeutics, Inc., priority 2023, published 2025).

By AC50 is commonly meant the midpoint of the concentration-response curve, whichever way the signal moves.

The target in test [1] is T1, Full length WRN protein (aa 2-1432) (Homo sapiens (Human), UniProt Q14191). Description: WRN ATPase ADP-Glo biochemical assay, Assay Format A (10 μM ATP). As to conditions: 0.25 nM WRN, 100 nM C6.18 ssDNA, 30 min preincubation, read-out: ATPase ADPGlo AC50 (uM)- Assay Format A. An outline of the steps: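 Sf9-expressed FLAG-AVI-TEV-tagged WRN (0.5 nM) preincubated 30 min with compound (11-point 3-fold dilution). Reaction started with 200 nM C6.18 39-mer ssDNA and 20 μM ATP (addition concentrations), run 30 min at room temperature. ADP measured by ADP-Glo luminescence; IC50 from four-parameter fit, geometric mean of ≥2 runs.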
T1 sequence (Q14191 2-1432): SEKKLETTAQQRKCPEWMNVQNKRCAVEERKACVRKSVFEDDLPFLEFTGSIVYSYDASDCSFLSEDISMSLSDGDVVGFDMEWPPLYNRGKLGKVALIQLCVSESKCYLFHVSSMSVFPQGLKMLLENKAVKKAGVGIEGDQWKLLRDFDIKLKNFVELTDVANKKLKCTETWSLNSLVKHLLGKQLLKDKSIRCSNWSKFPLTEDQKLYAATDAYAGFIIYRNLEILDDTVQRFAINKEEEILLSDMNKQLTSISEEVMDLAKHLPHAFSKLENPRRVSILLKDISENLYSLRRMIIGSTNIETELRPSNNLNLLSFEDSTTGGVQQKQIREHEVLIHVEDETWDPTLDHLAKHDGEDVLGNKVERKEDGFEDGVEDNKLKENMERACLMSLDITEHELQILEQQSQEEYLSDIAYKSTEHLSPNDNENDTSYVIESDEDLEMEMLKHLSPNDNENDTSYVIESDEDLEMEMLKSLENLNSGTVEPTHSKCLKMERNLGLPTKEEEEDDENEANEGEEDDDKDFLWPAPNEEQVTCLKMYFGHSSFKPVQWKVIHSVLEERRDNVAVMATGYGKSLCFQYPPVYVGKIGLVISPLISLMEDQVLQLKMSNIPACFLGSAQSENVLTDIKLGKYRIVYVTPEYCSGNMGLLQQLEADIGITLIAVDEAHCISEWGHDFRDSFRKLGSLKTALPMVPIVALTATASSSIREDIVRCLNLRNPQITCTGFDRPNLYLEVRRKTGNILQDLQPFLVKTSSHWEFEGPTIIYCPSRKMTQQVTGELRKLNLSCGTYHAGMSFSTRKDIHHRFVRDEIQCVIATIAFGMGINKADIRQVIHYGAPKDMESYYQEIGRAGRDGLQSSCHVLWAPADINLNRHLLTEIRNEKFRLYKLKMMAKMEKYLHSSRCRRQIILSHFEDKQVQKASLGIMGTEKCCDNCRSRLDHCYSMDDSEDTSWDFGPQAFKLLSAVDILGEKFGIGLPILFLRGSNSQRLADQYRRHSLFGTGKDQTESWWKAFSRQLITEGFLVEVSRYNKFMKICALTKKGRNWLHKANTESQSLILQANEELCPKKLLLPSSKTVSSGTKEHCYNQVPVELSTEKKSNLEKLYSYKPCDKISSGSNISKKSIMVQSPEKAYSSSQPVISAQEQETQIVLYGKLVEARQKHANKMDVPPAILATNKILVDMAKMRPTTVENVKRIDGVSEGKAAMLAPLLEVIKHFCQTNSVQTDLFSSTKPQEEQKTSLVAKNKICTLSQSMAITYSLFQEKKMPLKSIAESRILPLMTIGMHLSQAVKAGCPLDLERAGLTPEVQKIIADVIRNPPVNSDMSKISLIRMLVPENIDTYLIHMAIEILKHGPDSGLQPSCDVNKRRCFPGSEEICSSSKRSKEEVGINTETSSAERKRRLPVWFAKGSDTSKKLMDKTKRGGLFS
(ADP-Glo turns the ADP formed in a reaction into a luminescent signal.)

Test [2] concerns the target T1, Full length WRN protein (aa 2-1432). In words: WRN ATPase ADP-Glo biochemical assay, Assay Format B (100 μM ATP). To be noted: 0.25 nM WRN, 100 nM C6.18 ssDNA, 60 min preincubation, read-out: ATPase ADPGlo AC50 (uM)- Assay Format B.
The test system of another test is HCT116 cells. In words: HCT116 (MSI) 7 day viability, CellTiter Glo. The format is cell-based. To be noted: Homo sapiens, HCT-116, 168 h, 7 days, read-out: HCT116 (MSI) Viability 7 Day Abs AC50. The method in brief:
(§1)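 Luminescence read-out (CellTiter Glo) after 7-day compound exposure at 37 °C. Seeding density 50 cells/well for HCT116, 500 cells/well for HT29. Background from cell-free medium wells; IC50 by four-parameter logistic fit, geometric mean of at least 2 replicates.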

In another test the test system is HT29 cells. Description: HT29 (MSS) 7 day viability, CellTiter Glo. The format is cell-based. To be noted: Homo sapiens, HT-29, 168 h, 7 days, read-out: HT29 (MSS) Viability 7 Day CTGAbs AC50. The method in brief: as §1
Background: ATP-based viability assays read luminescence as a measure of living cells.

For `C=CC(=O)N1CCc2nn(-c3ccc(C4CC4)cc3O)c3c2C(C1)N(C(=O)c1cnc(Br)c(F)c1N)CC3` (centres unmarked) [Compound 202, 1-(5-(4-amino-6-bromo-5-fluoronicotinoyl)-2-(4-cyclopropyl-2-hydroxyphenyl)-2,3,4,5,5a,6,8,9-octahydro-7H-1,2,5,7-tetraazabenzo[cd]azulen-7-yl)prop-2-en-1-one], the AC50 is 0.0015 to 0.005 µM in test [1], 0.0015 to 0.005 µM in test [2], 1 to 100 nM in the test with HCT116 cells and over 3000 nM in the test on HT29 cells.

With `C=CC(=O)N1CCc2nn(-c3ccc(C4CC4)cc3O)c3c2C(C1)N(C(=O)c1cnc(C(C)(F)F)c(F)c1N)CC3` (centres unmarked) [Compound 206, 1-(5-(4-amino-6-(1,1-difluoroethyl)-5-fluoronicotinoyl)-2-(4-cyclopropyl-2-hydroxyphenyl)-2,3,4,5,5a,6,8,9-octahydro-7H-1,2,5,7-tetraazabenzo[cd]azulen-7-yl)prop-2-en-1-one], the AC50 is 0.0015 to 0.005 µM in test [1], 0.0015 to 0.005 µM in test [2], 1 to 100 nM in the test with HCT116 cells and over 3000 nM with HT29 cells.

Turning to `COC/C=C/C(=O)N1CCc2nn(-c3ccc(C4CCC4)cc3O)c3c2C(C1)N(C(=O)c1cnc(C(F)(F)F)cc1N)CC3` (centres unmarked) [Compound 239, 1-(5-(4-amino-6-(trifluoromethyl)nicotinoyl)-2-(4-cyclobutyl-2-hydroxyphenyl)-2,3,4,5,5a,6,8,9-octahydro-7H-1,2,5,7-tetraazabenzo[cd]azulen-7-yl)-4-methoxybut-2-en-1-one], the AC50 was 0.005 to 0.015 µM in test [1], over 0.055 µM in test [2], 100 to 250 nM in the test on HCT116 cells and over 3000 nM in the test with HT29 cells.

On to `C=CC(=O)N1CCc2nn(-c3ccc(C4CCC4)cc3C)c3c2C(C1)N(C(=O)c1cnc(C(F)(F)F)cc1N)CC3` (centres unmarked) [Compound 240, 1-(5-(4-amino-6-(trifluoromethyl)nicotinoyl)-2-(4-cyclobutyl-2-methylphenyl)-2,3,4,5,5a,6,8,9-octahydro-7H-1,2,5,7-tetraazabenzo[cd]azulen-7-yl)prop-2-en-1-one], for which the AC50 in test [1] was under 0.0015 µM; in test [2], 0.0015 to 0.005 µM; with HCT116 cells, 1 to 100 nM; with HT29 cells, over 3000 nM.

`C=CC(=O)N1CCc2nn(-c3ccc(C4CCC4)cc3Cl)c3c2C(C1)N(C(=O)c1cnc(C(F)(F)F)cc1N)CC3` (centres unmarked) [Compound 241, 1-(5-(4-amino-6-(trifluoromethyl)nicotinoyl)-2-(2-chloro-4-cyclobutylphenyl)-2,3,4,5,5a,6,8,9-octahydro-7H-1,2,5,7-tetraazabenzo[cd]azulen-7-yl)prop-2-en-1-one]: the AC50 was under 0.0015 µM in test [1], 0.005 to 0.015 µM in test [2], 1 to 100 nM in the test with HCT116 cells and over 3000 nM with HT29 cells.

With `C=CC(=O)N1CCc2nn(-c3ccc(C4CCC4)cc3O)c3c2C(C1)N(C(=O)c1ccc(C(F)(F)F)c2ncncc12)CC3` (centres unmarked) [Compound 242, 1-(2-(4-cyclobutyl-2-hydroxyphenyl)-5-(8-(trifluoromethyl)quinazoline-5-carbonyl)-2,3,4,5,5a,6,8,9-octahydro-7H-1,2,5,7-tetraazabenzo[cd]azulen-7-yl)prop-2-en-1-one], the AC50 in test [1] is 0.0015 to 0.005 µM; in test [2], 0.015 to 0.055 µM; in the test with HCT116 cells, 1 to 100 nM; in the test with HT29 cells, over 3000 nM.

Take `Nc1cc(C(F)(F)F)ncc1C(=O)N1CCc2c3c(nn2-c2ccc(C4CCC4)cc2)CCN(C(=O)/C=C\Cl)CC31` (centres unmarked) [Compound 243, 1-(5-(4-amino-6-(trifluoromethyl)nicotinoyl)-2-(4-cyclobutylphenyl)-2,3,4,5,5a,6,8,9-octahydro-7H-1,2,5,7-tetraazabenzo[cd]azulen-7-yl)-3-chloroprop-2-en-1-one]: the AC50 was 0.0015 to 0.005 µM in test [1], 0.015 to 0.055 µM in test [2], 1 to 100 nM in the test with HCT116 cells and 1000 to 3000 nM in the test with HT29 cells.

For `C=CC(=O)N1CCc2nn(-c3cc(F)c(C4CC4)c(F)c3O)c3c2C(C1)N(C(=O)c1cnc(C(F)(F)F)cc1N)CC3` (centres unmarked) [Compound 244, 1-(5-(4-amino-6-(trifluoromethyl)nicotinoyl)-2-(4-cyclopropyl-3,5-difluoro-2-hydroxyphenyl)-2,3,4,5,5a,6,8,9-octahydro-7H-1,2,5,7-tetraazabenzo[cd]azulen-7-yl)prop-2-en-1-one], the AC50 was 0.0015 to 0.005 µM in test [1], 0.015 to 0.055 µM in test [2], 1 to 100 nM with HCT116 cells and over 3000 nM in the test on HT29 cells.

With `C=CC(=O)N1CCc2nn(-c3ccc(C4CC4)cc3O)c3c2C(C1)N(C(=O)c1ccc(C(F)(F)F)cc1N)CC3` (centres unmarked) [Compound 245, 1-(5-(2-amino-4-(trifluoromethyl)benzoyl)-2-(4-cyclopropyl-2-hydroxyphenyl)-2,3,4,5,5a,6,8,9-octahydro-7H-1,2,5,7-tetraazabenzo[cd]azulen-7-yl)prop-2-en-1-one], the AC50 in test [1] is under 0.0015 µM; in test [2] it was 0.005 to 0.015 µM; in the test with HCT116 cells, 1 to 100 nM; in the test on HT29 cells, over 3000 nM.

As for `C=CC(=O)N1CC(OC2CC3(COC3)C2)c2nn(-c3ccc(C4CCC4)cc3)c3c2C(C1)N(C(=O)c1cnc(C(F)(F)F)cc1N)CC3` (centres unmarked) [Compound 246], the AC50 in test [1] was under 0.0015 µM; in test [2], 0.005 to 0.015 µM; in the test with HCT116 cells, 1 to 100 nM; in the test on HT29 cells, over 3000 nM.

As for `C=CC(=O)N1CCc2nn(-c3ccc(C4CC4)cc3O)c3c2C(C1)N(C(=O)c1cnc(OC(F)(F)F)c(F)c1N)CC3` (centres unmarked) [Compound 247, 1-(5-(4-amino-5-fluoro-6-(trifluoromethoxy)nicotinoyl)-2-(4-cyclopropyl-2-hydroxyphenyl)-2,3,4,5,5a,6,8,9-octahydro-7H-1,2,5,7-tetraazabenzo[cd]azulen-7-yl)prop-2-en-1-one], the AC50 is 0.0015 to 0.005 µM in test [1], 0.005 to 0.015 µM in test [2], 1 to 100 nM in the test on HCT116 cells and over 3000 nM in the test on HT29 cells.

Consider `C=CC(=O)N1CCc2nn(-c3ccc(C4CC4)cc3O)c3c2C(C1)N(C(=O)c1nnc(C(F)(F)F)cc1N)CC3` (centres unmarked) [Compound 248, 1-(5-(4-amino-6-(trifluoromethyl)pyridazine-3-carbonyl)-2-(4-cyclopropyl-2-hydroxyphenyl)-2,3,4,5,5a,6,8,9-octahydro-7H-1,2,5,7-tetraazabenzo[cd]azulen-7-yl)prop-2-en-1-one], for which the AC50 in test [1] is under 0.0015 µM; in test [2], 0.0015 to 0.005 µM; in the test with HCT116 cells it was 1 to 100 nM; in the test with HT29 cells, over 3000 nM.

Turning to `C=CC(=O)N1CC(OCc2nnc(C)s2)c2nn(-c3ccc(C4CC4)cc3)c3c2C(C1)N(C(=O)c1cnc(C(F)(F)F)cc1N)CC3` (centres unmarked) [Compound 249, 1-(5-(4-amino-6-(trifluoromethyl)nicotinoyl)-2-(4-cyclopropylphenyl)-9-((5-methyl-1,3,4-thiadiazol-2-yl)methoxy)-2,3,4,5,5a,6,8,9-octahydro-7H-1,2,5,7-tetraazabenzo[cd]azulen-7-yl)prop-2-en-1-one], the AC50 in test [1] was under 0.0015 µM; in test [2], 0.0015 to 0.005 µM; in the test on HCT116 cells it was 1 to 100 nM; in the test on HT29 cells, over 3000 nM.

Take `C=CC(=O)N1CC(OCc2ncco2)c2nn(-c3ccc(C4CC4)cc3)c3c2C(C1)N(C(=O)c1cnc(C(F)(F)F)cc1N)CC3` (centres unmarked) [Compound 250, 1-(5-(4-amino-6-(trifluoromethyl)nicotinoyl)-2-(4-cyclopropylphenyl)-9-(oxazol-2-ylmethoxy)-2,3,4,5,5a,6,8,9-octahydro-7H-1,2,5,7-tetraazabenzo[cd]azulen-7-yl)prop-2-en-1-one]: the AC50 in test [1] is under 0.0015 µM; in test [2], under 0.0015 µM; with HCT116 cells, 1 to 100 nM; with HT29 cells, over 3000 nM.

For `C=CC(=O)N1CC(OCc2cccnc2)c2nn(-c3ccc(C4CC4)cc3)c3c2C(C1)N(C(=O)c1cnc(C(F)(F)F)cc1N)CC3` (centres unmarked) [Compound 251, 1-(5-(4-amino-6-(trifluoromethyl)nicotinoyl)-2-(4-cyclopropylphenyl)-9-(pyridin-3-ylmethoxy)-2,3,4,5,5a,6,8,9-octahydro-7H-1,2,5,7-tetraazabenzo[cd]azulen-7-yl)prop-2-en-1-one], the AC50 is under 0.0015 µM in test [1], 0.005 to 0.015 µM in test [2], 1 to 100 nM in the test with HCT116 cells and over 3000 nM with HT29 cells.

With `C=CC(=O)N1CCc2nn(-c3ccc(C4CC4)cc3OC(F)F)c3c2C(C1)N(C(=O)c1cnc(C(F)(F)F)cc1N)CC3` (centres unmarked) [Compound 252, 1-(5-(4-amino-6-(trifluoromethyl)nicotinoyl)-2-(4-cyclopropyl-2-(difluoromethoxy)phenyl)-2,3,4,5,5a,6,8,9-octahydro-7H-1,2,5,7-tetraazabenzo[cd]azulen-7-yl)prop-2-en-1-one], the AC50 was 0.0015 to 0.005 µM in test [1], 0.005 to 0.015 µM in test [2], 1 to 100 nM in the test with HCT116 cells and over 3000 nM in the test with HT29 cells.

Take `C=CC(=O)N1CC(OCC2CCOCC2)c2nn(-c3ccc(C4CC4)cc3)c3c2C(C1)N(C(=O)c1cnc(C(F)(F)F)cc1N)CC3` (centres unmarked) [Compound 255, 1-(5-(4-amino-6-(trifluoromethyl)nicotinoyl)-2-(4-cyclopropylphenyl)-9-((tetrahydro-2H-pyran-4-yl)methoxy)-2,3,4,5,5a,6,8,9-octahydro-7H-1,2,5,7-tetraazabenzo[cd]azulen-7-yl)prop-2-en-1-one]: the AC50 in test [1] is under 0.0015 µM; in test [2] it was 0.005 to 0.015 µM; with HCT116 cells, 1 to 100 nM; in the test on HT29 cells it was over 3000 nM.
